Experimental data: ChEMBL document CHEMBL3797105, “Investigation of triazole-linked indole and oxindole glycoconjugates as potential anticancer agents: novel Akt/PKB signaling pathway inhibitors” (Medchemcomm, 2016)
Activity calls are given as the source filed them. The rule behind the calls is not given here.

Tests used:
[1] = Cell cycle arrest in human DU145 cells assessed as accumulation at G2/M phase at 15 uM after 48 hrs by propidium iodide staining based flow cytometry (reference value: 15.81%); format: functional; settings: DU-145
[2] = Cell cycle arrest in human DU145 cells assessed as accumulation at G0/G1 phase at 15 uM after 48 hrs by propidium iodide staining based flow cytometry (reference value: 61.28%); format: functional; settings: DU-145
[3] = Cell cycle arrest in human DU145 cells assessed as accumulation at S phase at 20 uM after 48 hrs by propidium iodide staining based flow cytometry (reference value: 8.62%); format: functional; settings: DU-145
[4] = Cell cycle arrest in human DU145 cells assessed as accumulation at G0/G1 phase at 20 uM after 48 hrs by propidium iodide staining based flow cytometry (reference value: 61.28%); format: functional; settings: DU-145
[5] = Cell cycle arrest in human DU145 cells assessed as accumulation at G2/M phase at 25 uM after 48 hrs by propidium iodide staining based flow cytometry (reference value: 15.81%); format: functional; settings: DU-145
[6] = Cell cycle arrest in human DU145 cells assessed as accumulation at G0/G1 phase at 10 uM after 48 hrs by propidium iodide staining based flow cytometry (reference value: 61.28%); format: functional; settings: DU-145
[7] = system: DU-145; assay: Induction of apoptosis in human DU145 cells assessed as activation of caspase 9 using […] as substrate preincubated for 48 hrs followed by substrate addition measured after 2 hrs by fluorescence analysis; format: functional, cell-based
[8] = system: DU-145; assay: Inhibition of colony formation in human DU145 cells after 9 days by crystal violet staining based microscopic analysis; format: functional, cell-based
[9] = system: DU-145; assay: Induction of apoptosis in human DU145 cells assessed as activation of caspase 3 using Ac-DEVD AMC as substrate at 5 to 25 uM preincubated for 48 hrs followed by substrate addition measured after 2 hrs by fluorescence analysis; format: functional, cell-based
[10] = Cell cycle arrest in human DU145 cells assessed as accumulation at sub G1 phase at 10 uM after 48 hrs by propidium iodide staining based flow cytometry (reference value: 2.30%); format: functional; settings: DU-145
[11] = Cell cycle arrest in human DU145 cells assessed as accumulation at G2/M phase at 5 uM after 48 hrs by propidium iodide staining based flow cytometry (reference value: 15.81%); format: functional; settings: DU-145
[12] = Cell cycle arrest in human DU145 cells assessed as accumulation at sub G1 phase at 5 uM after 48 hrs by propidium iodide staining based flow cytometry (reference value: 2.30%); format: functional; settings: DU-145
[13] = system: A549; assay: Cytotoxicity against human A549 cells after 48 hrs by sulforhodamine B assay; format: functional, cell-based; settings: A549, 48 h
[14] = Cell cycle arrest in human DU145 cells assessed as accumulation at sub G1 phase at 20 uM after 48 hrs by propidium iodide staining based flow cytometry (reference value: 2.30%); format: functional; settings: DU-145
[15] = system: DU-145; assay: Induction of morphological changes in human DU145 cells after 48 hrs by microscopic analysis; format: functional, cell-based
[16] = system: MCF7; assay: Cytotoxicity against human MCF7 cells after 48 hrs by sulforhodamine B assay; format: functional, cell-based; settings: MCF7, 48 h
[17] = Cytotoxicity against mouse NIH/3T3 cells after 48 hrs by sulforhodamine B assay; settings: NIH3T3, 48 h
[18] = Cell cycle arrest in human DU145 cells assessed as accumulation at G0/G1 phase at 25 uM after 48 hrs by propidium iodide staining based flow cytometry (reference value: 61.28%); format: functional; settings: DU-145
[19] = Cell cycle arrest in human DU145 cells assessed as accumulation at S phase at 25 uM after 48 hrs by propidium iodide staining based flow cytometry (reference value: 8.62%); format: functional; settings: DU-145
[20] = system: DU-145; assay: Inhibition of Akt phosphorylation in human DU145 cells after 48 hrs by Western blot analysis; format: cell-based
[21] = Cell cycle arrest in human DU145 cells assessed as accumulation at sub G1 phase at 25 uM after 48 hrs by propidium iodide staining based flow cytometry (reference value: 2.30%); format: functional; settings: DU-145
[22] = system: DU-145; assay: Inhibition of Akt in human DU145 cells assessed as increase in p27Kip1 levels after 48 hrs by Western blot analysis; format: cell-based
[23] = system: DU-145; assay: Induction of apoptosis in human DU145 cells assessed as activation of caspase 8 using Ac-VETD-AMC as substrate preincubated for 48 hrs followed by substrate addition measured after 2 hrs by fluorescence analysis; format: functional, cell-based
[24] = system: HeLa; assay: Cytotoxicity against human HeLa cells after 48 hrs by sulforhodamine B assay; format: functional, cell-based
[25] = Cytotoxicity against human DU145 cells after 48 hrs by sulforhodamine B assay; format: functional, cell-based; settings: DU-145, 48 h
[26] = Cell cycle arrest in human DU145 cells assessed as accumulation at sub G1 phase at 15 uM after 48 hrs by propidium iodide staining based flow cytometry (reference value: 2.30%); format: functional; settings: DU-145
[27] = Cell cycle arrest in human DU145 cells assessed as accumulation at G2/M phase at 10 uM after 48 hrs by propidium iodide staining based flow cytometry (reference value: 15.81%); format: functional; settings: DU-145
[28] = Cell cycle arrest in human DU145 cells assessed as accumulation at S phase at 5 uM after 48 hrs by propidium iodide staining based flow cytometry (reference value: 8.62%); format: functional; settings: DU-145
[29] = Cell cycle arrest in human DU145 cells assessed as accumulation at S phase at 15 uM after 48 hrs by propidium iodide staining based flow cytometry (reference value: 8.62%); format: functional; settings: DU-145
[30] = Cell cycle arrest in human DU145 cells assessed as accumulation at G2/M phase at 20 uM after 48 hrs by propidium iodide staining based flow cytometry (reference value: 15.81%); format: functional; settings: DU-145
[31] = Cell cycle arrest in human DU145 cells assessed as accumulation at S phase at 10 uM after 48 hrs by propidium iodide staining based flow cytometry (reference value: 8.62%); format: functional; settings: DU-145
[32] = Cell cycle arrest in human DU145 cells assessed as accumulation at G0/G1 phase at 5 uM after 48 hrs by propidium iodide staining based flow cytometry (reference value: 61.28%); format: functional; settings: DU-145

Row | Structure (SMILES) | Activity [1] [%] | Activity [2] [%] | Activity [3] [%] | Activity [4] [%] | Activity [5] [%] | Activity [6] [%] | Activity [7] | inhibition [8] | Activity [9] | Activity [10] [%] | Activity [11] [%] | Activity [12] [%] | IC50 [13] [µM] | Activity [14] [%] | Activity [15] | IC50 [16] [µM] | IC50 [17] [µM] | Activity [18] [%] | Activity [19] [%] | inhibition [20] | also measured
1 | CC(=O)OC[C@H]1O[C@@H](n2cc(Cn3cc(/C=C/C(=O)c4ccccc4)c4ccccc43)nn2)[C@H](OC(C)=O)[C@@H](OC(C)=O)[C@@H]1OC(C)=O | 11.9 | 21.5 | 1.34 | 12.9 | 1.01 | 21.2 | Dose-dependent effect | Dose-dependent effect | Active | 43.7 | 8.22 | 4.53 | 16.3 | 82.4 | Dose-dependent effect | 23.9 | > 200 | 12 | 0.8 | Active | Activity [21]: 84.1%; inhibition [22]: Dose-dependent effect; Activity [23]: Dose-dependent effect; IC50 [24]: 33 µM; IC50 [25]: 14.4 µM; Activity [26]: 54%; Activity [27]: 16.2%; Activity [28]: 4.72%; Activity [29]: 3.82%; Activity [30]: 1.87%; Activity [31]: 4.41%; Activity [32]: 75%
2 | CC(=O)OC[C@H]1O[C@@H](n2cc(CN3C(=O)/C(=C/c4ccc(C)cc4)c4ccccc43)nn2)[C@H](OC(C)=O)[C@@H](OC(C)=O)[C@@H]1OC(C)=O | 14.9 | 46.6 | 5.72 | 40.5 | 9.05 | 48.1 | Dose-dependent effect | Dose-dependent effect | Active | 14.4 | 12.6 | 7.12 | 16 | 34.3 | Dose-dependent effect | > 100 | 73.3 | 41.4 | 4.86 | Active | Activity [21]: 37.5%; inhibition [22]: Dose-dependent effect; Activity [23]: Dose-dependent effect; IC50 [24]: 85.6 µM; IC50 [25]: 9.3 µM; Activity [26]: 17.2%; Activity [27]: 16.7%; Activity [28]: 6.85%; Activity [29]: 7.64%; Activity [30]: 10.9%; Activity [31]: 7.56%; Activity [32]: 59.1%
